PMC3799725, “Detection of Active Matriptase Using a Biotinylated Chloromethyl Ketone Peptide” (PLoS ONE, 2013)
Where no end group is shown, it is not given here. The star is where a group is joined. Biotin = O=C1N[C@H]2[C@H](CS[C@H]2CCCCC(=O)*)N1

Experiments:
[1] = tested on: murine matriptase (primary keratinocytes); conditions: representative of 2 independent experiments; for labeling of matriptase in matriptase-deficient (KO) murine keratinocytes: lysates or pull downs (figure 6 lanes 4-6 and 10-12)
[2] = tested on: matriptase SPD; assay: Chromogenic assay: inhibition of matriptase SPD cleavage of S2288; conditions: representative of 3 independent experiments
[3] = tested on: matriptase-HAI-1 complex; assay: Reaction with / effect on matriptase-HAI-1 complex in Caco-2 cells (pH 6.0-induced)

Compound	labeling of matriptase in matriptase-deficient (KO) murine keratinocytes [1]	inhibition of peptidolytic activity of matriptase SPD after pre-incubation of inhibitor ([2]; 5 nM inhibitor pre-incubated 60 min at 37°C, 0.2 nM SPD, Hepes pH 7.4, S2288 300 µM, 405 nm)	inhibition of peptidolytic activity of matriptase SPD ([2]; 5 nM inhibitor, no pre-incubation (0 min), 0.2 nM SPD, Hepes pH 7.4, 10 min at 37°C, S2288 300 µM, 405 nm)	inhibition of matriptase SPD after pre-incubation of inhibitor ([2]; 50 µM inhibitor pre-incubated in aqueous solution 180 min at 37°C, 0.2 nM SPD, Hepes pH 7.4, 10 min at 37°C, S2288 300 µM, 405 nm)	inhibition of matriptase SPD cleavage of chromogenic substrate at pH 6.0 ([2]; 50 µM inhibitor, 20 mM citric acid pH 6.0, 140 mM NaCl, 0.1% BSA, 10 min at 37°C, S2288 300 µM)	labeling of matriptase after pH 6.0 pre-treatment (matriptase-HAI-1 complex formed) ([3]; 50 µM, 30 min at 37°C at pH 7.4 after 30 min pre-treatment at pH 6.0 (figure 4 lane 9))	labeling of matriptase-HAI-1 complex ([3]; Caco-2, 50 µM, 30 min at 37°C, conclusion from pH 6.0 pre-treatment)	dissociation of matriptase-HAI-1 complex ([3]; under the conditions used in the study)	labeling of matriptase on WT murine keratinocytes by control peptide ([1]; 50 µM control peptide, WT keratinocytes (figure 6 lane 3))
biotin-Arg-Gln-Arg-Arg-chloromethyl ketone	No matriptase could be detected in lysates or pull downs	fully inhibiting the peptidolytic activity	fully inhibiting the peptidolytic activity	still sufficient to efficiently inhibit the activity	no cleavage of the substrate was observed	but not when the cells had been exposed to pH 6.0 for 30 min	matriptase-HAI-1 complex is not labeled	not able to dissociate the matriptase-HAI-1 complex	–
Biotin-RQRR [biotin-RQRR]	No matriptase could be detected in lysates or pull downs	–	–	–	–	–	–	–	No matriptase was detected
O=C(CCCC[C@@H]1SC[C@@H]2NC(=O)N[C@@H]21)NCCSSCCC(=O)ON1C(=O)CC(S(=O)(=O)[O-])C1=O.[Na+] (some centres unmarked) [S-NHS-SS-biotin]	No matriptase could be detected in lysates or pull downs	–	–	–	–	–	–	–	–
